# From publication PMC5218480 (PLoS ONE, 2017)
# Test system: MV-4-11 cells
# Experiment: Gene expression microarray analysis (Affymetrix PrimeView) and GSEA
# Type: cell-based, human
# Set-up: RFU PODN (11730768_x_at) / Fold change /veh PODN (11730768_x_at) / RFU LINC00158 (11744669_a_at) / Fold change /veh LINC00158 (11744669_a_at) / RFU DUSP10 (11751237_a_at) / Fold change /veh DUSP10 (11751237_a_at) / RFU ID3 (11757404_x_at) / Fold change /veh ID3 (11757404_x_at) / RFU PLEKHG5 (11737974_s_at) / Fold change /veh PLEKHG5 (11737974_s_at) / RFU LRRC4B (11730491_at) / Fold change /veh LRRC4B (11730491_at) / RFU GIMAP4 (11747438_a_at) / Fold change /veh GIMAP4 (11747438_a_at) / RFU KRT8 (11758183_x_at) / Fold change /veh KRT8 (11758183_x_at) / RFU CNN1 (11734310_a_at) / Fold change /veh CNN1 (11734310_a_at) / RFU VPS37D (11726825_at) / Fold change /veh VPS37D (11726825_at) / RFU C10orf10 (11716522_x_at) / Fold change /veh C10orf10 (11716522_x_at) / RFU KIR2DL2 /// KIR2DL4 /// KIR2DL5A /// KIR2DL5B /// KIR2DS1 /// KIR2DS2 /// KIR2DS3 /// KIR2DS4 /// KIR3DL3 /// KIR3DL3 /// KIR3DS1 (11738374_at) / Fold change /veh KIR2DL2 /// KIR2DL4 /// KIR2DL5A /// KIR2DL5B /// KIR2DS1 /// KIR2DS2 /// KIR2DS3 /// KIR2DS4 /// KIR3DL3 /// KIR3DL3 /// KIR3DS1 (11738374_at) / RFU C1QL1 (11718748_at) / Fold change /veh C1QL1 (11718748_at) / RFU TMPRSS4 (11747572_a_at) / Fold change /veh TMPRSS4 (11747572_a_at) / RFU HAMP (11756126_x_at) / Fold change /veh HAMP (11756126_x_at) / RFU RNFT2 (11725882_a_at) / Fold change /veh RNFT2 (11725882_a_at) / RFU NR4A2 (11747474_a_at) / Fold change /veh NR4A2 (11747474_a_at) / RFU ABCC12 (11746883_a_at) / Fold change /veh ABCC12 (11746883_a_at) / RFU TMEM136 (11760407_x_at) / Fold change /veh TMEM136 (11760407_x_at) / RFU CLDN22 /// WWC2 (11732394_at) / Fold change /veh CLDN22 /// WWC2 (11732394_at) / RFU HLA-DPB1 (11760878_x_at) / Fold change /veh HLA-DPB1 (11760878_x_at) / RFU SPINT1 (11716480_a_at) / Fold change /veh SPINT1 (11716480_a_at) / RFU GAP43 (11754022_s_at) / Fold change /veh GAP43 (11754022_s_at) / RFU A4GNT (11735810_at) / Fold change /veh A4GNT (11735810_at) / RFU PRB3 (11715151_x_at) / Fold change /veh PRB3 (11715151_x_at) / RFU TUBB4B (11761932_at) / Fold change /veh TUBB4B (11761932_at) / RFU CAPN14 (11732068_a_at) / Fold change /veh CAPN14 (11732068_a_at) / RFU TMCC2 (11721928_a_at) / Fold change /veh TMCC2 (11721928_a_at) / RFU IRGQ (11745062_a_at) / Fold change /veh IRGQ (11745062_a_at) / RFU FAM174B (11720279_a_at) / Fold change /veh FAM174B (11720279_a_at) / RFU TMPRSS4 (11748680_a_at) / Fold change /veh TMPRSS4 (11748680_a_at) / RFU FAM212B (11763350_a_at) / Fold change /veh FAM212B (11763350_a_at) / RFU PLEKHG5 (11743358_a_at) / Fold change /veh PLEKHG5 (11743358_a_at) / RFU ZSCAN30 (11745921_a_at) / Fold change /veh ZSCAN30 (11745921_a_at) / RFU CMKLR1 (11741424_a_at) / Fold change /veh CMKLR1 (11741424_a_at) / RFU LOC101060620 /// MAPK8IP1 (11723275_at) / Fold change /veh LOC101060620 /// MAPK8IP1 (11723275_at) / RFU SPTSSB (11747773_x_at) / Fold change /veh SPTSSB (11747773_x_at) / RFU PRSS12 (11739890_at) / Fold change /veh PRSS12 (11739890_at) / RFU BIN1 (11741810_x_at) / Fold change /veh BIN1 (11741810_x_at) / RFU WNT11 (11732464_a_at) / Fold change /veh WNT11 (11732464_a_at) / RFU C10orf10 (11716521_a_at) / Fold change /veh C10orf10 (11716521_a_at) / RFU C5orf56 (11738089_at) / Fold change /veh C5orf56 (11738089_at) / RFU CYB561 (11721691_x_at) / Fold change /veh CYB561 (11721691_x_at) / RFU ANKRD19P (11752326_a_at) / Fold change /veh ANKRD19P (11752326_a_at) / RFU OR2T12 /// OR2T33 /// OR2T8 (11738714_s_at) / Fold change /veh OR2T12 /// OR2T33 /// OR2T8 (11738714_s_at) / RFU VCAN (11748164_a_at) / Fold change /veh VCAN (11748164_a_at) / RFU JSRP1 (11732532_at) / Fold change /veh JSRP1 (11732532_at) / RFU KRTAP10-11 (11738290_x_at) / Fold change /veh KRTAP10-11 (11738290_x_at) / RFU MYO3A (11730013_a_at) / Fold change /veh MYO3A (11730013_a_at) / RFU EBF3 (11725865_a_at) / Fold change /veh EBF3 (11725865_a_at) / RFU CAMK2N1 (11719241_x_at) / Fold change /veh CAMK2N1 (11719241_x_at) / RFU C5orf56 (11738088_a_at) / Fold change /veh C5orf56 (11738088_a_at) / RFU OLFML3 (11715873_a_at) / Fold change /veh OLFML3 (11715873_a_at) / RFU LOC100653217 /// NTM (11731650_a_at) / Fold change /veh LOC100653217 /// NTM (11731650_a_at) / RFU MAPK11 (11762145_a_at) / Fold change /veh MAPK11 (11762145_a_at) / RFU FIZ1 (11724087_x_at) / Fold change /veh FIZ1 (11724087_x_at) / RFU OASL (11726364_x_at) / Fold change /veh OASL (11726364_x_at) / RFU SOX15 (11748057_x_at) / Fold change /veh SOX15 (11748057_x_at) / RFU CD79A (11719716_a_at) / Fold change /veh CD79A (11719716_a_at) / RFU HIST1H1D (11736915_at) / Fold change /veh HIST1H1D (11736915_at) / RFU CASKIN2 (11723855_a_at) / Fold change /veh CASKIN2 (11723855_a_at) / RFU LOC730098 (11760151_x_at) / Fold change /veh LOC730098 (11760151_x_at) / RFU OR4N2 (11742367_at) / Fold change /veh OR4N2 (11742367_at) / RFU PRRT2 (11749266_a_at) / Fold change /veh PRRT2 (11749266_a_at) / RFU SNX32 (11753110_a_at) / Fold change /veh SNX32 (11753110_a_at) / RFU CDHR5 (11726645_a_at) / Fold change /veh CDHR5 (11726645_a_at) / RFU RCAN1 (11760418_a_at) / Fold change /veh RCAN1 (11760418_a_at) / RFU FAM167A (11723789_a_at) / Fold change /veh FAM167A (11723789_a_at) / RFU FAM26E (11764081_at) / Fold change /veh FAM26E (11764081_at) / RFU ISYNA1 (11749810_s_at) / Fold change /veh ISYNA1 (11749810_s_at) / RFU ACY1 (11761880_at) / Fold change /veh ACY1 (11761880_at) / RFU 11764098_at / Fold change /veh 11764098_at / RFU SAMD14 (11745864_x_at) / Fold change /veh SAMD14 (11745864_x_at) / RFU NPB (11741838_a_at) / Fold change /veh NPB (11741838_a_at) / RFU TMPRSS6 (11731388_a_at) / Fold change /veh TMPRSS6 (11731388_a_at) / RFU KRTAP10-2 (11738614_at) / Fold change /veh KRTAP10-2 (11738614_at) / RFU ARHGAP8 /// PRR5-ARHGAP8 (11727945_x_at) / Fold change /veh ARHGAP8 /// PRR5-ARHGAP8 (11727945_x_at) / RFU KRTAP5-7 /// NADSYN1 (11734609_at) / Fold change /veh KRTAP5-7 /// NADSYN1 (11734609_at) / RFU RASL12 (11751679_a_at) / Fold change /veh RASL12 (11751679_a_at) / RFU CDKN2B (11736163_a_at) / Fold change /veh CDKN2B (11736163_a_at) / RFU PRF1 (11729649_at) / Fold change /veh PRF1 (11729649_at) / RFU, ZNF638 /// ZNF638-IT1 / Fold change vs veh, ZNF638 /// ZNF638-IT1 / RFU, PANK3 / Fold change vs veh, PANK3 / RFU, SH3YL1 / Fold change vs veh, SH3YL1 / RFU, ZEB2 / Fold change vs veh, ZEB2 / RFU, NRIP1 / Fold change vs veh, NRIP1 / RFU, PTTG1IP / Fold change vs veh, PTTG1IP / RFU, CAPN2 / Fold change vs veh, CAPN2 / RFU, MED14 / Fold change vs veh, MED14 / RFU, SNORA58 / Fold change vs veh, SNORA58 / RFU, C1orf63 / Fold change vs veh, C1orf63 / RFU, LRRFIP1 / Fold change vs veh, LRRFIP1 / RFU, NDUFAF7 / Fold change vs veh, NDUFAF7 / RFU, SLC12A2 / Fold change vs veh, SLC12A2 / RFU, IBTK / Fold change vs veh, IBTK / RFU, ESF1 / Fold change vs veh, ESF1 / Fold change vs veh, TMEM50B / RFU, TAOK1 / Fold change vs veh, TAOK1 / RFU, ACBD3 / Fold change vs veh, ACBD3 / RFU, TMA16 / Fold change vs veh, TMA16 / RFU, RWDD3 / Fold change vs veh, RWDD3 / RFU, BCAT1 / Fold change vs veh, BCAT1 / RFU, EDEM3 / Fold change vs veh, EDEM3 / RFU, TMEM33 / Fold change vs veh, TMEM33 / RFU, WDR75 / Fold change vs veh, WDR75 / RFU, AHCTF1 / Fold change vs veh, AHCTF1 / RFU, TFRC / Fold change vs veh, TFRC / RFU, ZDHHC17 / Fold change vs veh, ZDHHC17 / RFU, NOM1 / Fold change vs veh, NOM1 / RFU, ARL8B / Fold change vs veh, ARL8B / RFU, ZBTB11 / Fold change vs veh, ZBTB11 / RFU, TAMM41 / Fold change vs veh, TAMM41 / RFU, KIAA1704 /// LOC100996395 / Fold change vs veh, KIAA1704 /// LOC100996395 / RFU, ING1 / Fold change vs veh, ING1 / RFU, TRMT61B / Fold change vs veh, TRMT61B / RFU, FUBP3 / Fold change vs veh, FUBP3 / RFU, TP53 / Fold change vs veh, TP53 / RFU, TNKS2 / Fold change vs veh, TNKS2 / RFU, ZFP14 / Fold change vs veh, ZFP14 / RFU, ACTR2 / Fold change vs veh, ACTR2 / RFU, PPP3R1 / Fold change vs veh, PPP3R1 / RFU, PIK3R1 / Fold change vs veh, PIK3R1 / RFU, HNRNPA1 / Fold change vs veh, HNRNPA1 / RFU, RNF170 / Fold change vs veh, RNF170 / RFU, ZNF28 / Fold change vs veh, ZNF28 / RFU, RNGTT / Fold change vs veh, RNGTT / RFU, OGT / Fold change vs veh, OGT / RFU, BRD1 / Fold change vs veh, BRD1 / RFU, MARS / Fold change vs veh, MARS / RFU, ZNF655 / Fold change vs veh, ZNF655 / RFU, FAHD1 / Fold change vs veh, FAHD1 / RFU, BDP1 / Fold change vs veh, BDP1 / RFU, LRRCC1 / Fold change vs veh, LRRCC1 / RFU, ARID1A / Fold change vs veh, ARID1A / RFU, ZNF146 / Fold change vs veh, ZNF146 / RFU, ZNF330 / Fold change vs veh, ZNF330 / RFU, GPN3 / Fold change vs veh, GPN3 / RFU, C9orf123 / Fold change vs veh, C9orf123 / RFU, N4BP2L2 / Fold change vs veh, N4BP2L2 / RFU, ARFIP1 / Fold change vs veh, ARFIP1 / RFU, FAM179B / Fold change vs veh, FAM179B / RFU, BCL10 / Fold change vs veh, BCL10 / RFU, UHRF1BP1L / Fold change vs veh, UHRF1BP1L / RFU, BET1 / Fold change vs veh, BET1 / RFU, CNOT2 / Fold change vs veh, CNOT2 / RFU, ZNF268 / Fold change vs veh, ZNF268 / Fold change vs veh, ZNF507 / RFU, DGCR2 / Fold change vs veh, DGCR2 / RFU, WDSUB1 / Fold change vs veh, WDSUB1 / Fold change vs veh, HSP90B1 /// MIR3652 / RFU, ADSS / Fold change vs veh, ADSS / RFU, GK / Fold change vs veh, GK / RFU, ZNF148 / Fold change vs veh, ZNF148 / RFU, TAF9 / Fold change vs veh, TAF9 / RFU, SLC1A5 / Fold change vs veh, SLC1A5 / RFU, SLMO2 / Fold change vs veh, SLMO2 / RFU, ABCC4 / Fold change vs veh, ABCC4 / RFU, LOC101060439 /// RAP1B / Fold change vs veh, LOC101060439 /// RAP1B / RFU, RFX7 / Fold change vs veh, RFX7 / RFU, GTPBP10 / Fold change vs veh, GTPBP10 / RFU, CNEP1R1 / Fold change vs veh, CNEP1R1 / RFU, BIVM-ERCC5 /// ERCC5 / Fold change vs veh, BIVM-ERCC5 /// ERCC5 / RFU, ILF3 / Fold change vs veh, ILF3 / RFU 11762660_at / Fold change /veh 11762660_at / RFU VCAN (11757783_s_at) / Fold change /veh VCAN (11757783_s_at) / RFU DDX43 (11728927_at) / Fold change /veh DDX43 (11728927_at) / RFU KRT8 (11758188_x_at) / Fold change /veh KRT8 (11758188_x_at) / RFU NKD1 (11759106_at) / Fold change /veh NKD1 (11759106_at) / RFU SRD5A1 (11742802_a_at) / Fold change /veh SRD5A1 (11742802_a_at) / RFU TPSAB1 /// TPSB2 (11721975_s_at) / Fold change /veh TPSAB1 /// TPSB2 (11721975_s_at) / RFU GSTM3 (11746129_a_at) / Fold change /veh GSTM3 (11746129_a_at) / RFU IL23R (11737362_x_at) / Fold change /veh IL23R (11737362_x_at) / RFU TMEM51 (11727254_a_at) / Fold change /veh TMEM51 (11727254_a_at) / RFU PIWIL2 (11732686_x_at) / Fold change /veh PIWIL2 (11732686_x_at) / RFU ORM1 (11744905_x_at) / Fold change /veh ORM1 (11744905_x_at) / RFU CCDC152 (11743942_at) / Fold change /veh CCDC152 (11743942_at) / RFU ECM1 (11717891_a_at) / Fold change /veh ECM1 (11717891_a_at) / RFU IL23R (11748794_a_at) / Fold change /veh IL23R (11748794_a_at) / RFU TNFAIP8L3 (11732012_x_at) / Fold change /veh TNFAIP8L3 (11732012_x_at) / RFU MBOAT4 (11741988_at) / Fold change /veh MBOAT4 (11741988_at) / RFU 11764193_at / Fold change /veh 11764193_at / RFU TMEM53 (11763286_at) / Fold change /veh TMEM53 (11763286_at) / RFU MAGEB2 (11727129_at) / Fold change /veh MAGEB2 (11727129_at) / RFU TMEM200A (11744735_a_at) / Fold change /veh TMEM200A (11744735_a_at) / RFU CCDC152 (11751479_a_at) / Fold change /veh CCDC152 (11751479_a_at) / RFU FAM211A (11726209_a_at) / Fold change /veh FAM211A (11726209_a_at) / RFU RGS16 (11746705_a_at) / Fold change /veh RGS16 (11746705_a_at) / RFU VCAN (11755009_s_at) / Fold change /veh VCAN (11755009_s_at) / RFU RHOB (11743442_s_at) / Fold change /veh RHOB (11743442_s_at) / RFU RGS16 (11720943_a_at) / Fold change /veh RGS16 (11720943_a_at) / RFU RGS16 (11720944_at) / Fold change /veh RGS16 (11720944_at) / RFU, VPS4B / Fold change vs veh, VPS4B / RFU, CREB1 / Fold change vs veh, CREB1 / RFU, DNAJC13 / Fold change vs veh, DNAJC13 / RFU, GNAQ / Fold change vs veh, GNAQ / RFU, CDK5R1 / Fold change vs veh, CDK5R1 / RFU, ZRANB3 / Fold change vs veh, ZRANB3 / RFU, CUL4A / Fold change vs veh, CUL4A / RFU, CCNY / Fold change vs veh, CCNY / RFU, UFL1 / Fold change vs veh, UFL1 / RFU, COG3 / Fold change vs veh, COG3 / RFU, DIAPH2 / Fold change vs veh, DIAPH2 / RFU, SKA2 / Fold change vs veh, SKA2 / RFU, AFF3 / Fold change vs veh, AFF3 / RFU, LMF1 / Fold change vs veh, LMF1 / RFU, IPO11 / Fold change vs veh, IPO11 / RFU, DFFB / Fold change vs veh, DFFB / RFU, FOXP1 / Fold change vs veh, FOXP1 / RFU, CARD8 / Fold change vs veh, CARD8 / RFU, STRN3 / Fold change vs veh, STRN3 / RFU, ADK / Fold change vs veh, ADK / RFU, RASSF2 / Fold change vs veh, RASSF2 / RFU, WIPF1 / Fold change vs veh, WIPF1 / RFU, LARP1B / Fold change vs veh, LARP1B / RFU, RASA1 / Fold change vs veh, RASA1 / RFU, RB1 / Fold change vs veh, RB1 / RFU, PPFIA1 / Fold change vs veh, PPFIA1 / RFU, MAT2A / Fold change vs veh, MAT2A / RFU, CCT5 / Fold change vs veh, CCT5 / RFU, WDR92 / Fold change vs veh, WDR92 / RFU, CUX1 / Fold change vs veh, CUX1 / RFU, TTC7A / Fold change vs veh, TTC7A / RFU, TMEM135 / Fold change vs veh, TMEM135 / RFU, DEPTOR / Fold change vs veh, DEPTOR / RFU, CPM / Fold change vs veh, CPM / RFU, DNAJB6 / Fold change vs veh, DNAJB6 / RFU, CACNA2D3 / Fold change vs veh, CACNA2D3 / RFU, DTX4 / Fold change vs veh, DTX4 / RFU, TFCP2 / Fold change vs veh, TFCP2 / RFU, GMCL1 /// GMCL1P1 / Fold change vs veh, GMCL1 /// GMCL1P1 / RFU, AEBP2 / Fold change vs veh, AEBP2 / RFU, SNHG1 /// SNORD22 /// SNORD25 /// SNORD26 /// SNORD27 /// SNORD28 /// SNORD29 /// SNORD31 / Fold change vs veh, SNHG1 /// SNORD22 /// SNORD25 /// SNORD26 /// SNORD27 /// SNORD28 /// SNORD29 /// SNORD31 / Fold change (Aza/veh), C12orf56 (ProbeSet 11735607_a_at) / Fold change (ACY-1035/veh), C12orf56 (ProbeSet 11735607_a_at) / Fold change (Aza/veh), FGFR1OP (ProbeSet 11751329_s_at) / Fold change (ACY-1035/veh), FGFR1OP (ProbeSet 11751329_s_at) / Fold change (Aza/veh), VPS36 (ProbeSet 11739960_a_at) / Fold change (ACY-1035/veh), VPS36 (ProbeSet 11739960_a_at) / RFU SYPL1 (11715823_x_at) / Fold change /veh SYPL1 (11715823_x_at) / RFU IGFBP7 (11715501_s_at) / Fold change /veh IGFBP7 (11715501_s_at) / RFU REEP3 (11722064_at) / Fold change /veh REEP3 (11722064_at) / RFU IGLL1 (11728026_x_at) / Fold change /veh IGLL1 (11728026_x_at): dose or concentration left out as unconfirmed
# Details: MV-4-11 cells, 48 hours
smiles,measurement,value
Nc1ccc(-c2cccs2)cc1NC(=O)c1ccc2c(c1)cc(C1CC1)n2CCN1CCOCC1 [ACY-1035],Fold change /veh PRB3 (11715151_x_at),0.95
